Data reported in patent US20260027068A1, “METHODS OF ADM[…]-KETAMINE” (Perception Neuroscience, Inc., priority 2022, published 2026).

Test: Temperature (vital signs)
Settings: 30 mg
Method: The Investigational Medicinal Product (IMP) R(−)-ketamine hydrochloride in sterile water for intravenous injection was investigated as an […] treatment of TRD. The International Union of Pure and Applied Chemistry (IUPAC) name is of the IMP is (2R)-2-(2-chlorophenyl)-2-(methylamino)cyclohexan-1-one. Subjects received the solution at either 30 mg or 60 mg dose, or a placebo. The IMP or placebo was administered on Day 1 as a single IV infusion via an electronic infusion pump over 40 minutes. The duration of study participation for each subject was up to 29 days including a screening period, a 3-day in-clinic visit, and 2 follow-up visits. 101 subjects were enrolled in approximately 20 study centers in the EU and the US.
Tympanic or temporal temperature, heart rate, blood pressure (SBP/DBP), respiratory rate, and SpO2 were assessed. Blood pressure and pulse measurements will be assessed with a completely automated device while the subject is supine or semi-supine. Manual techniques will be used only if an automated device is not available. Blood pressure and pulse measurements should be preceded by at least 5 minutes of rest for the subject in a quiet setting without distractions (e.g., television, cell phones). An abnormal blood pressure value at screening may be repeated once after 5 minutes of relaxation to determine the subject's eligibility. Blood pressure was recorded using the same arm and position (supine or semi-supine) throughout the study, where possible. Vital signs (to be taken before blood collection for laboratory tests) consisted of 1 pulse and 3 blood pressure measurements (3 consecutive blood pressure readings will be recorded at intervals of at least 1 minute). The average of the 3 blood pressure readings was recorded in the CRF. A pulse oximeter was used to measure peripheral capillary oxygen saturation (SpO2) continuously from pre-dose until 4-hours post-dose. A pulse oximeter was clipped onto the finger or foot of the subject, and light will be sent through the finger or foot and measured on the other side.
In these tables, baseline value is defined as the last non-missing value prior to study drug administration.

With CN[C@@]1(c2ccccc2Cl)CCCCC1=O.Cl [R(−)-ketamine, (2R)-2-(2-chlorophenyl)-2-(methylamino)cyclohexan-1-one] as the compound, how does the “Temperature, Max” value (Day 1, 15 minutes) read?
Its value is 37.2 °C.

And the “Temperature, Mean” value (Day 1, 15 minutes)?
Its value is 36.57 °C.

And the “Temperature, Median” value (Day 1, 15 minutes)?
Its value is 36.50 °C.

What about the “Temperature, Min” value (Day 1, 15 minutes) of the same compound?
The value was 36.4 °C.

And the “Temperature, Max” value (Day 1, 40 minutes)?
Its value is 37.2 °C.

And the “Temperature, Mean” value (Day 1, 40 minutes)?
The value was 36.58 °C.

And the “Temperature, Median” value (Day 1, 40 minutes)?
Its value is 36.60 °C.

What about the “Temperature, Min” value (Day 1, 40 minutes) of the same compound?
Its value is 36.2 °C.

What about the “Temperature, Max” value (Day 1, 60 minutes) of the same compound?
Its value is 37.2 °C.

And the “Temperature, Mean” value (Day 1, 60 minutes)?
Its value is 36.57 °C.

And the “Temperature, Median” value (Day 1, 60 minutes)?
Its value is 36.50 °C.

And the “Temperature, Min” value (Day 1, 60 minutes)?
The value was 36.3 °C.

And the “Temperature, Max” value (Day 1, 2 hours)?
Its value is 37.2 °C.

What about the “Temperature, Mean” value (Day 1, 2 hours) of the same compound?
Its value is 36.62 °C.

And the “Temperature, Median” value (Day 1, 2 hours)?
The value was 36.60 °C.

What about the “Temperature, Min” value (Day 1, 2 hours) of the same compound?
Its value is 36.4 °C.

What about the “Temperature, Max” value (Day 1, 4 hours) of the same compound?
The value was 37.1 °C.

And the “Temperature, Mean” value (Day 1, 4 hours)?
The value was 36.57 °C.

What about the “Temperature, Median” value (Day 1, 4 hours) of the same compound?
Its value is 36.60 °C.

What about the “Temperature, Min” value (Day 1, 4 hours) of the same compound?
Its value is 36.3 °C.

What about the “Temperature, Max” value (Day 1, 6 hours) of the same compound?
Its value is 37.2 °C.

And the “Temperature, Mean” value (Day 1, 6 hours)?
The value was 36.63 °C.

And the “Temperature, Median” value (Day 1, 6 hours)?
Its value is 36.60 °C.

What about the “Temperature, Min” value (Day 1, 6 hours) of the same compound?
The value was 36.3 °C.

What about the “Temperature, Max” value (Day 2 - Discharge) of the same compound?
Its value is 37.1 °C.

And the “Temperature, Mean” value (Day 2 - Discharge)?
Its value is 36.59 °C.

What about the “Temperature, Median” value (Day 2 - Discharge) of the same compound?
The value was 36.60 °C.

And the “Temperature, Min” value (Day 2 - Discharge)?
Its value is 35.9 °C.

And the “Temperature, Max” value (Day 8)?
Its value is 36.8 °C.

And the “Temperature, Mean” value (Day 8)?
Its value is 36.50 °C.

And the “Temperature, Median” value (Day 8)?
Its value is 36.50 °C.

What about the “Temperature, Min” value (Day 8) of the same compound?
The value was 36.1 °C.

And the “Temperature, Max” value (Day 15)?
Its value is 37.1 °C.

And the “Temperature, Mean” value (Day 15)?
The value was 36.60 °C.

What about the “Temperature, Median” value (Day 15) of the same compound?
Its value is 36.60 °C.

And the “Temperature, Min” value (Day 15)?
Its value is 36.2 °C.

And the “Temperature, Change from Baseline, Max” value (to Day 1, 15 minutes)?
Its value is 0.4 °C.

What about the “Temperature, Change from Baseline, Mean” value (to Day 1, 15 minutes) of the same compound?
Its value is 0.05 °C.

What about the “Temperature, Change from Baseline, Median” value (shortened to “Temperature, Change … Median”) (to Day 1, 15 minutes) of the same compound?
Its value is 0.10 °C.

And the “Temperature, Change from Baseline, Min” value (to Day 1, 15 minutes)?
The value was −0.3 °C.

And the “Temperature, Change from Baseline, Max” value (to Day 1, 40 minutes)?
Its value is 0.5 °C.

What about the “Temperature, Change from Baseline, Mean” value (to Day 1, 40 minutes) of the same compound?
Its value is 0.05 °C.

And the “Temperature, Change … Median” value (to Day 1, 40 minutes)?
Its value is 0.00 °C.

What about the “Temperature, Change from Baseline, Min” value (to Day 1, 40 minutes) of the same compound?
The value was −0.2 °C.

And the “Temperature, Change from Baseline, Max” value (to Day 1, 60 minutes)?
The value was 0.5 °C.

And the “Temperature, Change from Baseline, Mean” value (to Day 1, 60 minutes)?
Its value is 0.05 °C.

And the “Temperature, Change … Median” value (to Day 1, 60 minutes)?
The value was 0.00 °C.

What about the “Temperature, Change from Baseline, Min” value (to Day 1, 60 minutes) of the same compound?
Its value is −0.3 °C.

And the “Temperature, Change from Baseline, Max” value (to Day 1, 2 hours)?
Its value is 0.7 °C.

What about the “Temperature, Change from Baseline, Mean” value (to Day 1, 2 hours) of the same compound?
The value was 0.08 °C.

What about the “Temperature, Change … Median” value (to Day 1, 2 hours) of the same compound?
The value was 0.10 °C.

And the “Temperature, Change from Baseline, Min” value (to Day 1, 2 hours)?
The value was −0.2 °C.

What about the “Temperature, Change from Baseline, Max” value (to Day 1, 4 hours) of the same compound?
Its value is 0.5 °C.

What about the “Temperature, Change from Baseline, Mean” value (to Day 1, 4 hours) of the same compound?
Its value is 0.03 °C.

What about the “Temperature, Change … Median” value (to Day 1, 4 hours) of the same compound?
The value was 0.00 °C.

What about the “Temperature, Change from Baseline, Min” value (to Day 1, 4 hours) of the same compound?
The value was −0.4 °C.

What about the “Temperature, Change from Baseline, Max” value (to Day 1, 6 hours) of the same compound?
Its value is 0.9 °C.

And the “Temperature, Change from Baseline, Mean” value (to Day 1, 6 hours)?
The value was 0.09 °C.

And the “Temperature, Change … Median” value (to Day 1, 6 hours)?
Its value is 0.10 °C.

What about the “Temperature, Change from Baseline, Min” value (to Day 1, 6 hours) of the same compound?
Its value is −0.4 °C.

What about the “Temperature, Change from Baseline, Max” value (to Day 2 - Discharge) of the same compound?
Its value is 0.5 °C.

And the “Temperature, Change from Baseline, Mean” value (to Day 2 - Discharge)?
The value was 0.05 °C.

What about the “Temperature, Change … Median” value (to Day 2 - Discharge) of the same compound?
Its value is 0.00 °C.

And the “Temperature, Change from Baseline, Min” value (to Day 2 - Discharge)?
Its value is −0.3 °C.

What about the “Temperature, Change from Baseline, Max” value (to Day 8) of the same compound?
Its value is 0.6 °C.

What about the “Temperature, Change from Baseline, Mean” value (to Day 8) of the same compound?
Its value is −0.03 °C.

And the “Temperature, Change … Median” value (to Day 8)?
The value was 0.00 °C.

And the “Temperature, Change from Baseline, Min” value (to Day 8)?
The value was −0.7 °C.

And the “Temperature, Change from Baseline, Max” value (to Day 15)?
The value was 0.9 °C.

And the “Temperature, Change from Baseline, Mean” value (to Day 15)?
The value was 0.05 °C.

And the “Temperature, Change … Median” value (to Day 15)?
Its value is 0.00 °C.

And the “Temperature, Change from Baseline, Min” value (to Day 15)?
Its value is −0.4 °C.
